{
  "source": "patent US5112852A",
  "about": "“Allenyl amines” (Merrell Dow Pharmaceuticals Inc., priority 1989, dated 1992)",
  "key": {"hypertensive rats": {"tested_on": "hypertensive rats", "assay": "Antihypertensive activity in vivo, conscious hypertensive rats, mean blood pressure", "settings": "50 mg/kg (ip)", "description": "The ability of compounds of this invention to lower blood pressure can be determined in vivo using hypertensive rats according to standard and well known procedures. The test compound is administered intraperitoneally (ip) to conscious rats and the blood pressure monitored continuously. Decreased mean blood pressure over time was observed when a compound of this invention was tested by the above described procedure, as indicated in Table II."}, "[1]": {"tested_on": "dopamine-β-hydroxylase (DBH)", "assay": "DBH inhibitory activity in vitro (time-dependent inactivation; oxygen uptake with tyramine substrate)", "format": "biochemical", "settings": "1 mM, pH 4.5 to 5.5, preferably pH 5.0, 20-40° C., preferably 37° C., spread +/-1.1", "description": "The DBH inhibitory properties of the compounds of this invention can readily be determined by standard and well known procedures such as those procedures set forth in U.S. Pat. No. 4,415,591. […] The test compound is added at the desired concentration, and the system is incubated. At different time intervals aliquots are taken and DBH activity is measured using tyramine as the substrate. The reaction is followed by measuring oxygen uptake using a polarographic electrode and an oxygen monitor by the method of S. May, et al., J. Biol. Chem. 256, 2258 (1981)."}},
  "data": [
    {"molecule": "C=C=C(CN)c1cccs1", "note": "[β-ethenylidene-2-thiopheneethanamine, β-Ethenylidene-2-thiopheneethanamine]", "values": [
      {"measurement": "Maximum % Change in mean Blood Pressure", "setting": "hypertensive rats; decrease per text", "value": 15.6, "unit": "%"},
      {"measurement": "Duration", "setting": "hypertensive rats; duration of blood pressure change", "value": 10, "unit": "h"},
      {"measurement": "t 1/2 (time required for 50% inhibition)", "setting": "[1]", "value": 1.3, "unit": "h"}
    ]}
  ]
}
